Data published in patent publication US9895407B2, “Disinfecting formulations and uses thereof” (Sunny Wipes Pty Ltd, priority 2011, dated 2018).
Values joined by “and” are separate entries in the source; they are usually repeats but may differ in a detail not shown here. Equal entries are not always repeated.

Columns and labels:
[1] = tested on: hand microflora; experiment: Surgical handrub test, EN 12791:2005; type: in vivo, human; details: 5 volunteers, 60 seconds exposure, right hand under sterile glove for 3 hours
Description: The protocol is based upon European standard EN 12791:2005 designed for testing “Chemical disinfectants and antiseptics—Surgical hand disinfectant”.
The clean and healthy hands (free of cuts and abrasions and with short, clean fingernails) of 5 volunteers were initially washed for 1 min with soap and water and dried with paper towel. To establish base line flora levels the fingertips and thumb were rubbed for 1 minute on the base of a petri dish containing 10 ml of Tryptone Soy Broth (TSB). A separate petri dish was used for each hand. Dilutions of 10^−2 and 10^−3 were prepared from the TSB that were assayed by the pour-plate method using Tryptone Soy Agar (TSA) plates.
Immediately after sampling for the baseline and without recontamination of the hands the subjects performed the handrub test. The subjects were split into two groups which were alternately treated with the standard formulation or the test formulation initially and then the other formulation, separately by a week to allow re-colonisation of native flora. […]
Log10, values for immediate effect and sustained effect were then determined and a Log Reduction Factor for both test formulation and standard formulation were calculated based on the average difference between the log10 pre-value and the log10 post-value in each subject.

[2] = tested on: Escherichia coli (NCTC 10538); experiment: Hygienic handwash/handrub test, EN 1500:1997, artificially contaminated hands; type: in vivo; details: N = 14 subjects
[3] = tested on: Escherichia coli (NCTC 10538); experiment: as above; type: in vivo; details: 60 second rub
Excerpt: The protocol is based upon European standard EN 1500:1997 designed for testing “Chemical disinfectants and antiseptics—Hygienic handwash”. The subjects (15 volunteers with clean and healthy hands that were free of cuts and abrasions and having short, clean fingernails) were split into two approximately equal groups which were alternately treated with the standard formulation or the test formulation initially and then the other formulation, separately by a one day. The hands of the subjects were initially washed for 1 min with soap and water and dried with paper towel. […] Excess fluid was allowed to drain back into the container. Hands were air dried for 3 minutes, holding them in a horizontal position. Each subject was encouraged to rotate their hands to avoid the formation of droplets. Each subject was treated from the same batch of contamination fluid. After drying, fingertips and thumb were rubbed for 1 minute on the base of a Petri-dish, which contained 10 mL of TSB. A separate Petri-dish for each hand (Left and Right) was used. This was the Pre-value. Dilutions of 10^−4 and 10^−5 were prepared using sterile Peptone Water (PEP). Each dilution was spread onto pre-poured, dried TSA plates. […] This procedure was completed with a 5 second rinse of fingers under running tap water. For the test formulation, 3 mL of test product was dispensed onto the subject's hands and rubbed over for 30 seconds using the standard procedure as instructed. This was done twice to give total of 6 mL test product over 60 second rub. The test product procedure was completed with a 5 seconds rinse of fingers under running tap water. […] Dilutions of 10^0, 10^−1 and 10^−2 were spread on pre-poured and dried TSA plates. All plates were incubated at 36° C.±2° C. for 24-48 hours. After the incubation period, all the plates were checked and colony forming units on both standard and test sample were counted. Dilutions with counts that are within 15-300 cfu were used in the computation. Plates showing less than 15 cfu or no growth were also counted. […] The test culture used in this study was obtained from the University of New South Wales Culture Collection—Escherichia coli (NCTC 10538) A neutralizer validated according to prEN 12054 were incorporated in the sampling fluids and diluents for the assessment of post-values in both test and reference procedure. […] The test organism was freshly revived from frozen protect beads by sub culturing in two McCartney bottles containing 5 mL of TSB. They were incubated at 37° C. These cultures are then inoculated into two bottles containing 1 L TSB. They were incubated at 37° C. for 18-24 hours The cultures were pooled into a sterile bottle to prepare the bacterial suspension. […] For testing this product, a cross-over design was used. […]

[4] = per subject and hand, duplicate plates, 2 x 3 mL

Row | SMILES | reduction of hand microflora, after 3 hours [1] [Logs] | Log Y, average of subjects [2] | Postvalues ([3]; per subject and hand (L/R), after 2 x 3 mL) | Number of cfu per plate, Postvalues, dilution 10^-0 [3, 4] | Number of cfu per plate, Postvalues, dilution 10^-1 [3, 4] | Number of cfu per plate, Postvalues, dilution 10^-2 [3, 4]
1 | CCCO [60% propan-1-ol, propan-1-ol] | 1.89 |  |  |  |  | 
2 | CC(C)O [60% propan-2-ol, propan-2-ol] |  | 1.97 | 625 and 5 (3×) and 0 (2×) and 235 (2×) and 455 and 52 and 127 and 240 and 1415 and 2050 and 5950 and 4 and 165 and 125 and 690 and 250 and 210 and 21 and 61 and 30 and 74 and 7 and 22 and 1530 | TNTC/TNTC (14×) and 42/41 and 0/0 (3×) and 5/4 and 58/46 and 134/120 and 4/3 and 5/5 and 246/275 and 232/182 and 19/22 and 54/69 and 86/62 and 3/10 and 21/22 | 108/94 and 9/3 and 177/129 and 62/63 and 1/0 and 5/3 and 0/0 (6×) and 20/27 and 50/41 and 2/0 and 26/22 and 141/142 and TNTC/TNTC (2×) and 0/5 and 18/15 and 9/16 and 17/30 and 62/76 and 26/24 and 19/23 and 8/8 and 1/5 and 1/11 and 1/2 | 5/16 and 0/3 and 11/19 and 2/4 and 0/0 (12×) and 0/1 (2×) and 2/1 and 3/9 and 7/3 and 11 cfu and 16/ cfu and 56/ cfu and 0/2 and 1/0 and 10/9 and 17 cfu and 1/2 and 3/5
